# Measured values taken from patent US20260256780A1, “COMPOSITIONS FOR INDUCING RAS GTP HYDROLYSIS AND USES THEREOF” (Revolution Medicines, Inc., priority 2023, published 2026).
# How the values were obtained:
# [1] = system: KRASG12D-mutant cell line Gp2D; assay: Cell viability (CellTiter-Glo) and HSA synergy model, Gp2D; type: cell-based
# Method: (§1) Cell lines were seeded in complete growth media (RPMI-1640 or DMEM with 10% Fetal Bovine Serum and 1% Penicillin/Streptomycin) and allowed to adhere overnight in a 37° C. and 5% CO2 humidified incubator. The following day compounds were added at the indicate concentrations and incubated for a further 5 days. The number of viable cells in each well were assessed with Promega CellTiter-Glo® reagent according to manufacturer instructions. The cell viability was normalized to DMSO controls. The cell viability as a function of compound concentrations were plotted using GraphPad Prism analyzed using the Combenefit software package (Di Veroli G Y, Fornari C, Wang D, Mollard S, Bramhall J L, Richards F M, Jodrell D I. Combenefit: an interactive platform for the analysis and visualization of drug combinations. Bioinformatics. 2016 Sep. 15; 32(18):2866-8. doi: 10.1093/bioinformatics/btw230) to assess the synergy according to the highest single agent (HSA) synergy model (Borisy A A, Elliott P J, Hurst N W, Lee M S, Lehar J, Price E R, Serbedzija G, Zimmermann G R, Foley M A, Stockwell B R, Keith C T. Systematic discovery of multicomponent therapeutics. Proc Natl Acad Sci USA. 2003 Jun. 24; 100(13):7977-82. doi: 10.1073/pnas.1337088100)).
# (§2) The KRASG12D-mutant cell line Gp2D was grown in RPMI-16 40 supplemented with 10% fetal bovine serum and 1% penicillin/streptomycin. […]
# KRAS^G12C = biological target: T1, KRAS^G12C (Homo sapiens, UniProt P01116, G12C); assay: Covalent modification (cross-linking) of KRAS^G12C by sotorasib in MiaPaCa2 cells, immunoblot; type: cell-based
# T1 construct: endogenous in cells; host or cells: MiaPaCa2
# Method: The KRASG12C-mutant cell line MiaPaCa2 was grown in DMEM supplemented with 10% fetal bovine serum and 1% penicillin/streptomycin. 2500 cells were seeded in 0.15 mL in the wells of a tissue culture-treated 96-well plate. After overnight incubation, compounds were added at the indicated concentration and incubated for a further 120 hours. […] The density of the KRAS^G12C and KRAS^G12C-Soto. gel bands can be quantified, plotted as a function of time, and fit to a single-phase exponential model to get the rate constant for KRAS^G12C target engagement.
# [2] = system: KRASG12D-mutant cell line AsPC-1; assay: Cell viability (CellTiter-Glo) and HSA synergy model, AsPC-1; type: cell-based
# Method: as §1
# The KRASG12D-mutant cell line AsPC-1 was grown in RPMI-1640 supplemented with 10% fetal bovine serum and 1% penicillin/streptomycin. 2500 cells were seeded in 0.15 mL in the wells of a tissue culture-treated 96-well plate. After overnight incubation, compounds were added at the indicated concentration and incubated for a further 120 hours. Cell viability was assessed with Promega CellTiter Glo reagent, and the relative cell viability was plotted as a function of the concentration of (FIG. 4A and FIG. 4G) MRTX1133 or (FIG. 4D) MRTX-282 in combination with the indicated concentration to Compound A (FIG. 4A and FIG. 4D) or Compound D (FIG. 4G), both strong hydrolyzers. The synergy between (FIG. 4B and FIG. 4H) MRTX1133 or (FIG. 4E) MRTX-282 and Compound A (FIGS. 4B and 4E) or Compound D (FIG. 4H) was assessed by the HAS synergy model. Representative points of synergistic drug combination between (FIG. 4C and FIG. 4I) MRTX1133 or (FIG. 4F) MRTX-282 and Compound A (FIG. 4C and FIG. 4F) or Compound D (FIG. 4I) are highlighted.
# The KRASG12D-mutant cell line AsPC-1 was grown in RPMI-1640 supplemented with 10% fetal bovine serum and 1% penicillin/streptomycin. 2000 cells were seeded in 0.15 mL in the wells of a tissue culture-treated 96-well plate. After overnight incubation, compounds were added at the indicated concentration and incubated for a further 120 hours. Cell viability was assessed with Promega CellTiter Glo reagent, and the relative cell viability was plotted as a function of the concentration of pan KRAS-IN-1 in combination with the indicated concentration to Compound D (FIG. 11A) or Compound C (FIG. 11D), both strong hydrolyzers. The synergy between pan KRAS-IN-1 and Compound D (FIG. 11B) or Compound C (FIG. 11E) was assessed by the HAS synergy model. Representative points of synergistic drug combination between pan KRAS-IN-1 and Compound D (FIG. 11C) or Compound C (FIG. 11F).
# [3] = system: KRASG12C-mutant cell line MiaPaCa2; assay: Cell viability (CellTiter-Glo) and HSA synergy model, MiaPaCa2; type: cell-based
# Method: as §1
# The KRASG12C-mutant cell line MiaPaCa2 was grown in DMEM supplemented with 10% fetal bovine serum and 1% penicillin/streptomycin. […]
# [4] = system: KRASG12D-mutant cell line HPAC; assay: Cell viability (CellTiter-Glo) and HSA synergy model, HPAC; type: cell-based
# Method: as §1
# The KRASG12D-mutant cell line HPAC was grown in RPMI-16 40 supplemented with 10% fetal bovine serum and 1% penicillin/streptomycin. […]
# [5] = system: KRASG12V-mutant cell line Capan-2; assay: Cell viability (CellTiter-Glo) and HSA synergy model, Capan-2; type: cell-based; conditions: in combination with pan KRAS-IN-1, 120 hours
# Method: as §1
# The KRASG12V-mutant cell line Capan-2 was grown in RPMI-1640 supplemented with 10% fetal bovine serum and 1% penicillin/streptomycin. […]
# [6] = system: KRASG12C-mutant cell line H358; assay: Cell viability (CellTiter-Glo) and HSA synergy model, H358; type: cell-based; conditions: in combination with pan KRAS-IN-1, 120 hours
# Method: as §1
# The KRASG12C-mutant cell line H358 was grown in RPMI-1640 supplemented with 10% fetal bovine serum and 1% penicillin/streptomycin. […]
# [7] = system: KRASG12R-mutant cell line PSN1; assay: Cell viability (CellTiter-Glo) and HSA synergy model, PSN1; type: cell-based; conditions: in combination with pan KRAS-IN-1, 120 hours
# Method: as §1
# The KRASG12R-mutant cell line PSN1 was grown in RPMI-1640 supplemented with 10% fetal bovine serum and 1% penicillin/streptomycin. […]
# [8] = system: RAS wild-type cell line, HaCat; assay: Cell viability (CellTiter-Glo) and HSA synergy model, HaCat control; type: cell-based, human
# Method: as §1, §2
# [9] = in combination with MRTX1133, 120 hours
# [10] = in combination with MRTX-282, 120 hours
# [11] = AsPC-1, in combination with MRTX1133, 120 hours
# [12] = AsPC-1, in combination with pan KRAS-IN-1, 120 hours
Compound,"synergy on cell viability (HSA synergy model) [1, 9]","synergy on cell viability (HSA synergy model) [1, 10]","cross-linking efficiency of sotorasib (KRAS^G12C; MiaPaCa2 cells, 1 μM sotorasib in combination with 1 μM or 10 μM Compound A vs sotorasib alone)","amount of covalently-modified KRAS^G12C (KRAS^G12C-Soto.) (KRAS^G12C; MiaPaca-2 cells, sotorasib in combination with 1 or 10 μM of Compound A)",rate of covalent engagement of KRAS^G12C (rate constant for target engagement) (KRAS^G12C; combination of sotorasib and compound A compared with sotorasib alone),"synergy on cell viability (HSA synergy model) [2, 11]","synergy on cell viability (HSA synergy model) ([2]; AsPC-1, in combination with MRTX-282, 120 hours)","synergy on cell viability (HSA synergy model) ([3]; MiaPaCa2, in combination with AMG510, 120 hours)","synergy on cell viability (HSA synergy model) ([3]; MiaPaCa2, in combination with MRTX849, 120 hours)","synergy on cell viability (HSA synergy model) [4, 9]","synergy on cell viability (HSA synergy model) [4, 10]",synergy on cell viability (HSA synergy model) [5],synergy on cell viability (HSA synergy model) [6],"synergy on cell viability (HSA synergy model) [2, 12]",synergy on cell viability (HSA synergy model) [7],synergy on cell viability (HSA synergy model) ([8]; in combination with MRTX1133),synergy on cell viability (HSA synergy model) ([8]; in combination with MRTX-282)
"CCn1c(-c2cccnc2[C@H](C)OC)c2c3cc(ccc31)[C@@H]1C[C@H]1CC[C@H](NC(=O)[C@H]1[C@H](C)[C@@H]1C)C(=O)N1CCC[C@H](N1)C(=O)OCC(C)(C)C2 (atropisomer, axis not shown) [compound 1]",synergistic,synergistic,increases in a concentration dependent manner,increased at each time point,more rapid,synergistic,synergistic,synergistic,synergistic,synergistic,synergistic,–,–,–,–,–,–
"CCn1c(-c2cc(N3CCN(C)CC3)cnc2[C@H](C)OC)c2c3cc(ccc31)CCCC[C@H](NC(=O)[C@H]1C[C@@H]1C)C(=O)N1CCC[C@H](N1)C(=O)OCC(C)(C)C2 (atropisomer, axis not shown) [compound 3]",–,–,–,–,–,–,–,–,–,–,–,synergistic,synergistic,synergistic,synergistic,–,–
"CCn1c(-c2cc(N3CCN(C)CC3)cnc2[C@H](C)OC)c2c3cc(ccc31)[C@@H]1C[C@H]1CC[C@H](NC(=O)[C@H]1[C@H](C)[C@@H]1C)C(=O)N1CCC[C@H](N1)C(=O)OCC(C)(C)C2 (atropisomer, axis not shown) [compound 6]",–,–,–,–,–,synergistic,–,–,–,–,–,synergistic,synergistic,synergistic,synergistic,no synergy,no synergy
